Here are results for 13 molecules from US6727275B2, “Pyrrolidinone derivatives” (UCB, S.A./N.V., priority 2001, dated 2004).

For data set [1], the target named is T1, CCR2 (Homo sapiens, UniProt P41597).
T1 sequence (P41597 1-360 isoform P41597-2): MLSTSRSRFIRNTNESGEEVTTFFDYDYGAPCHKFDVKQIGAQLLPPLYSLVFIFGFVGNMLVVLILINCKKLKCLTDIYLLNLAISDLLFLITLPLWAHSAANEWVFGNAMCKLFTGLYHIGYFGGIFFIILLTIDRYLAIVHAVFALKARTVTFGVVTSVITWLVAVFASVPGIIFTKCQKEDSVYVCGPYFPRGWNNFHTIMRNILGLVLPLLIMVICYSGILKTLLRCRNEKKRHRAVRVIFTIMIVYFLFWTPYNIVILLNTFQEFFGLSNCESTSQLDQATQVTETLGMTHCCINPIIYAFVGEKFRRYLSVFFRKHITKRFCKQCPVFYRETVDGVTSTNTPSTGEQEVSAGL
Put plainly: Binding assay: inhibition of 125I-MCP-1 binding to THP-1 cells. Further details: CCR2 is also expressed in the human monocytic cell line THP-1; endogenous in cells; host or cells: THP-1 (human monocytic cell line), whole cells. As to the method:
Antagonism of the CCR2 receptor is determined by a binding assay using the human monocytic cell line THP-1. Cells are suspended in assay buffer (RPMI+1% BSA+25 mM HEPES) at 3×10^6 cells/ml and an aliquot (180 μl) added to a 0.5 ml siliconized Eppendorf tube. […] After incubation for 1 hr at room temperature, the cell suspension is centrifuged through oil and the cell pellets counted to quantitate cell-bound ligand. Nonspecific (NS) binding of radioligand is determined by the addition of 100 nM cold MCP-1. Control binding is determined by the addition of buffer without compound.

Data set [2] concerns the target T1, CCR2. Put plainly: Chemotaxis assay: MCP-1 induced migration of THP-1 cells. More on the design: endogenous in cells; host or cells: THP-1 cells. The conditions noted are these: 3 nM MCP-1, 37° C. for 2 hr, read-out: Inhibition of cell chemotaxis, IC50. The format is cell-based. How it is done: Antagonism of CCR2 function is determined by a chemotaxis assay. MCP-1 is prepared in buffer (Hanks+0.1% human serum albumin) at 3 nM concentration and aliquoted into the bottom chambers of a 96-well chemotaxis plate (Neuroprobe). THP-1 cells are suspended in the same buffer at 1×10^7 cells/ml and compound added at various concentrations to the aliquots of cells. The cell and compound mixture is added to the top of the polycarbonate membrane (5 μm pore diameter) and the chemotaxis plate incubated at 37° C. for 2 hr. After the unmigrated cells are scraped off the top of the filter, the plate is gently centrifuged and the membrane removed. Cells which migrate to the bottom chamber are quantitated by counting with a hemacytometer. Spontaneous chemotaxis is determined by measuring cell migration in the absence of chemokine. Chemotaxis of a positive control is determined by measuring cell migration without compound. Inhibition of cell chemotaxis is determined as an IC50.

Setting [3] is: THP-1 cells, 0.1 nM 125I-MCP-1, 1 hr at room temperature, read-out: Inhibition of 125I-MCP-1 binding to THP-1 cells, IC50.

A value given as a limit tells only on which side of the number the result lay.

One may read the IC50 as the concentration that inhibits the measured activity by half. On to `CC(=O)C1=C(O)C(=O)N(c2ccc(Cl)c(C)c2)C1C1CCCCC1` (racemic) [Compound 53, 4-acetyl-1-(4-chloro-3-methylphenyl)-5-cyclohexyl-3-hydroxy-1,5-dihydro-2H-pyrrol-2-one], for which the IC50 on CCR2 [1] (setting [3]) and at CCR2 [2] was no more than 5 µM throughout. With `CC(=O)C1=C(O)C(=O)N(c2ccc(Cl)cc2)C1C1CCCCC1` (racemic) [Compound 24, 4-acetyl-1-(4-chlorophenyl)-5-cyclohexyl-3-hydroxy-1,5-dihydro-2H-pyrrol-2-one], the half-maximal inhibitory concentration (IC50) on CCR2 [1] (setting [3]) and at CCR2 [2] was no more than 5 µM each time. Regarding `CC(=O)C1=C(O)C(=O)N(c2ccc(Cl)cc2)[C@@H]1C12CC3CC(CC1C3)C2` [Compound 156, (R)-4-acetyl-1-(4-chlorophenyl)-3-hydroxy-5-tricyclo[3.3.1.0˜3,7˜]non-3-yl-1,5-dihydro-2H-pyrrol-2-one], the half-maximal inhibitory concentration (IC50) on CCR2 [1] (setting [3]) and at CCR2 [2] was no more than 5 µM in each case.

Consider `CC(=O)C1=C(O)C(=O)N(c2ccc(C)cc2)C1C1CCCCC1` (racemic) [Compound 10, 4-acetyl-5-cyclohexyl-3-hydroxy-1-(4-methylphenyl)-1,5-dihydro-2H-pyrrol-2-one], for which the 50% inhibitory concentration (IC50) on CCR2 [1] (setting [3]) and at CCR2 [2] was no more than 5 µM each time. Regarding `CC(=O)C1=C(O)C(=O)N(c2ccc(F)cc2)[C@@H]1C1CCCCC1` [Compound 139, (R)-4-acetyl-5-cyclohexyl-1-(4-fluorophenyl)-3-hydroxy-1,5-dihydro-2H-pyrrol-2-one], the half-maximal inhibitory concentration (IC50) on CCR2 [1] (setting [3]) was no more than 5 µM.

Consider `CC(=O)C1=C(O)C(=O)N(Cc2ccccc2)C1C1CCCCC1` (racemic) [Compound 7, 4-acetyl-1-benzyl-5-cyclohexyl-3-hydroxy-1,5-dihydro-2H-pyrrol-2-one], for which, on CCR2 [1] (setting [3]), the IC50 was no more than 5 µM. For `CC(=O)C1=C(O)C(=O)N(c2ccc(Cl)cc2)C1C1CCC(C)CC1` (racemic) [Compound 150, 4-acetyl-1-(4-chlorophenyl)-3-hydroxy-5-(4-methylcyclohexyl)-1,5-dihydro-2H-pyrrol-2-one], on CCR2 [1] (setting [3]), the half-inhibitory concentration (IC50) is no more than 5 µM. `CCCC(CCC)C1C(C(C)=O)=C(O)C(=O)N1c1ccc(C)cc1` (racemic) [Compound 39, 4-acetyl-3-hydroxy-1-(4-methylphenyl)-5-(1-propylbutyl)-1,5-dihydro-2H-pyrrol-2-one]: at CCR2 [1], the concentration for half-maximal inhibition (IC50) is no more than 5 µM.

For `CC(=O)C1=C(O)C(=O)N(c2ccc(Cl)cc2F)C1C1CCCC1` (racemic) [Compound 119, 4-acetyl-1-(4-chloro-2-fluorophenyl)-5-cyclopentyl-3-hydroxy-1,5-dihydro-2H-pyrrol-2-one], on CCR2 [1] (setting [3]), the IC50 is no more than 5 µM. By melting point is commonly meant the temperature of the solid-liquid transition. `CCOC(=O)OC1=C(C(C)=O)[C@@H](C2CCCCC2)N(c2ccc(Cl)cc2F)C1=O` [Compound P1, (5R)-4-acetyl-1-(4-chloro-2-fluorophenyl)-5-cyclohexyl-2-oxo-2,5-dihydro-1H-pyrrol-3-yl ethyl carbonate]: the melting point was determined as 74 °C.

Regarding `Cc1ccc(N2C(=O)C(O)=C(C(=O)C(C)(C)C)C2C2CCCCC2)cc1` (racemic) [Compound 41, 5-cyclohexyl-4-(2,2-dimethylpropanoyl)-3-hydroxy-1-(4-methylphenyl)-1,5-dihydro-2H-pyrrol-2-one], the IC50 on CCR2 [1] (setting [3]) is no more than 5 µM. Turning to `CC(=O)C1=C(O)C(=O)N(c2ccc(Cl)c(C)c2)[C@@H]1C1CCCC1` [Compound 135, (R)-4-acetyl-1-(4-chloro-3-methylphenyl)-5-cyclopentyl-3-hydroxy-1,5-dihydro-2H-pyrrol-2-one], the half-inhibitory concentration (IC50) at CCR2 [1] (setting [3]) is no more than 5 µM. `CC(=O)C1=C(O)C(=O)N(c2ccc(Cl)c(C)c2)C1C1CCCC1` (racemic) [Compound 69, 4-acetyl-1-(4-chloro-3-methylphenyl)-5-cyclopentyl-3-hydroxy-1,5-dihydro-2H-pyrrol-2-one]: the IC50 at CCR2 [1] (setting [3]) and on CCR2 [2] was no more than 5 µM in each case.
